Legend:
[1] = Free T4 / TSH monitoring under hypothyroid induction therapy, glioblastoma subject (Example 1); type: in vivo, human; settings: Example 1 GBM subject; PTU 600 mg/day in parallel with temozolomide; after about 12 weeks of treatment
Procedure: Shortly thereafter carboplatin treatment (7 mg/kg) was initiated along with continuation of the thyroid reduction therapy, using 600 mg/day PTU.
In order to achieve hypothyroxinemia, in addition to PTU, 5 μg of triiodotionine (T3) was added 3 times a day in order to inhibit TSH and reduce thyroxine level.

[2] = T4 / FT4 levels in treated cancer patients (summary of empirical findings); type: in vivo, human; settings: Cytomel at 5-40 μg/day
Excerpt: (§1) These clinical findings correlated with the subject being at a state of moderate hypothyroidism, as indicated by the low levels (below normal) of T4 in the subject's blood and above normal values of TSH; • combined treatment of cancer subjects with an anti-thyroid agent, such as methimazole or PTU, in combination with Cytomel®, slowed tumor growth and/or enhanced sensitivity of the tumor cells to chemotherapy and/or radiation therapy.

cancer = assay: Growth of cancer in treated cancer patients (summary of empirical findings); type: in vivo, human; settings: Cytomel at 5-40 μg/day
Excerpt: as §1

[3] = Free T4 level, subject with malignant fibrous histiocytoma (Example 2); type: in vivo, human; settings: methimazole 40 mg/day with palliative radiation (46Gy), after 2 months
Procedure: The subject was maintained on Cytomel® 5 μg, three times a day and methimazole (reduced to 30 mg once a day).

[4] = tested on: malignant fibrous histiocytoma (MFH) of the left pulmonary vein; assay: Tumor size / mass, subject with malignant fibrous histiocytoma (Example 2); settings: methimazole 40 mg/day with palliative radiation (46Gy), after 2 months
[5] = tested on: grade IV glioblastoma (GBM); assay: Brain MRI tumor response, glioblastoma subject (Example 1); type: in vivo, human; settings: Example 1, tumor recurrence about two years later; regimen as labelled

CCCc1cc(=O)[nH]c(=S)[nH]1 [PTU, propylthiouracil]
T4 levels [1]: slightly reduced

N[C@@H](Cc1cc(I)c(Oc2ccc(O)c(I)c2)c(I)c1)C(=O)O [Cytomel®, Liothyronine sodium]
T4 levels [2]: decrease in T4 levels
growth of the cancer (cancer): slows the growth of the cancer

Cn1cc[nH]c1=S [methimazole]
free T4 level [3]: no change
tumor size [4]: no change

N.N.O=C([O-])C1(C(=O)[O-])CCC1.[Pt+2] [carboplatin]
tumor response on MRI at recurrence [5]: no response
